Assay results: article PMC12439760 (Bioorganic & medicinal chemistry, 2025)
“And” between values parts separate entries of the source, which are not always exact repeats. Identical values can stand only once.

Columns and labels:
hCB1 receptor [1] = target: T1, hCB1 receptor (Homo sapiens, UniProt P21554); experiment: [3H]CP55940 radioligand displacement, CHO cell membranes overexpressing hCB1; type: binding
hCB2 receptor [2] = target: T2, hCB2 receptor (Homo sapiens, UniProt P34972); experiment: [3H]CP55940 radioligand displacement, CHO cell membranes overexpressing hCB2; type: binding
T2 sequence (P34972 whole entry): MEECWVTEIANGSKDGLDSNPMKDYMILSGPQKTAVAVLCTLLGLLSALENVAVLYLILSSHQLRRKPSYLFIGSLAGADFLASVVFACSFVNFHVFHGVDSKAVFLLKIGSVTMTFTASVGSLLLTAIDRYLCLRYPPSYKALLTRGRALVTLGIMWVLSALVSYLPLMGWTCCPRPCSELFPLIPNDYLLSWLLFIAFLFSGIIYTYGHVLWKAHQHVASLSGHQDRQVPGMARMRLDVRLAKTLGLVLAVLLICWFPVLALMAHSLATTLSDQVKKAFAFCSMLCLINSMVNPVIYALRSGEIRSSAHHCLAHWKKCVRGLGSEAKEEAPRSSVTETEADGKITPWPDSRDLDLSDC

Human liver microsome = type: in vitro ADME; settings: pooled human liver microsomes, pH 7.4
[3] = Mouse pharmacokinetic study; type: in vivo, C57BL/6 mice; settings: for plasma levels: mice, 3 mg/kg po, data not shown
[4] = test system: CYP3A4, CYP1A2 and CYP2B6; experiment: Isoform-specific CYP induction assays in HepaRG cells, overall profile; type: cell-based, human; settings: data not shown
hCB1 receptor [5] = target: T1, hCB1 receptor; experiment: hCB1 Gαq16-coupled calcium mobilization assay in CHO-K1 cells; type: cell-based; settings: hCB1 Ca EC50, CHO cells expressing hCB1 and Gαq16, calcium mobilization
hCB2 receptor [6] = target: T2, hCB2 receptor; experiment: hCB2 Gαq16-coupled calcium mobilization assay in CHO-K1 cells; type: cell-based; settings: hCB2 Ca EC50, CHO cells expressing hCB2 and Gαq16, calcium mobilization
CYP1A2 = CYP1A2 induction assay in HepaRG cells; type: cell-based, human; settings: 10 μM, 24 hrs, % of positive control 50 μM omeprazole
CYP2B6 = CYP2B6 induction assay in HepaRG cells; type: cell-based, human; settings: 10 μM, 24 hrs, % of positive control 1 mM phenobarbital
CYP3A4 = CYP3A4 induction assay in HepaRG cells; type: cell-based, human; settings: 10 μM, 24 hrs, % of positive control 10 μM rifampicin

T1 sequence (P21554 whole entry): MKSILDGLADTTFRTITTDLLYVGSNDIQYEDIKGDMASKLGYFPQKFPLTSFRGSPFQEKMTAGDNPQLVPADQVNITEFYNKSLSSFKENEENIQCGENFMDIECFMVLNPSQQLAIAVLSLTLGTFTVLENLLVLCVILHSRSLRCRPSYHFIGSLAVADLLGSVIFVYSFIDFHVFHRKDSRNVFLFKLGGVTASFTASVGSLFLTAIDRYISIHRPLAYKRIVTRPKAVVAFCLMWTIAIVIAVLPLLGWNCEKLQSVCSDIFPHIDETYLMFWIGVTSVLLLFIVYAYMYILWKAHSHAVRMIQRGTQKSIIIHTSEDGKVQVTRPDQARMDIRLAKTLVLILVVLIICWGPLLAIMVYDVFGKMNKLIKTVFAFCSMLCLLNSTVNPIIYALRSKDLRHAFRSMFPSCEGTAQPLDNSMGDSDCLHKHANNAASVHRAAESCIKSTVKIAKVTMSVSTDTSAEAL

| SMILES | half-life at 1 μM (Human liver microsome) [h] | microsomal CLint at 1 μM (Human liver microsome) [µL/min/mg] | EC50 (hCB1 receptor [5]) | EC50 (hCB2 receptor [6]) [nM] | also measured |
| --- | --- | --- | --- | --- | --- |
| CC(C)(NC(=O)c1nn(CC2CCOCC2)c2ccccc12)c1cccc(C(N)=O)c1 [Compound 51, N-[2-(3-Carbamoylphenyl)propan-2-yl]-1-(oxan-4-ylmethyl)-1H-indazole-3-carboxamide] | 3.13 | 3.3 |  |  | Ki (hCB1 receptor [1]): 150 nM; Ki (hCB2 receptor [2]): 56 nM; plasma levels [3]: < 30 ng/mL; CYP induction profile (in words) [4]: profile similar to that of 45 |
| CCCCCn1nc(C(=O)NC(C)(C)c2cccc(C(N)=O)c2)c2ccccc21 [Compound 52, N-[2-(3-Carbamoylphenyl)propan-2-yl]-1-pentyl-1H-indazole-3-carboxamide] | 0.533 | 19 | 202 ± 16 nM | 175 ± 32 |  |
| CC(C)(NC(=O)c1nn(Cc2ccc(F)cc2)c2ccccc12)C1CCCN(C(N)=O)C1 (centres unmarked) [Compound 31, N-[2-(1-Carbamoylpiperidin-3-yl)propan-2-yl]-1-[(4-fluorophenyl)methyl]-1H-indazole-3-carboxamide] | 0.433 |  |  | 29 ± 4 | Ki (hCB1 receptor [1]): 49 nM; Ki (hCB2 receptor [2]): 27 nM |
| CC(C)(NC(=O)c1nn(Cc2ccc(F)cc2F)c2ccccc12)c1cccc(C(N)=O)c1 [Compound 45, N-[2-(3-Carbamoylphenyl)propan-2-yl]-1-[(2,4-difluorophenyl)methyl]-1H-indazole-3-carboxamide] | > 3.33 | < 5 | 151 ± 32 nM | 35 ± 6 | CYP1A2 Induction (% of Omeprazole) (CYP1A2): 20%; CYP2B6 Induction (% of Phenobarbital) (CYP2B6): 6%; CYP3A4 Induction (% of Rifampicin) (CYP3A4): 66%; Max. Conc. Brain ([3]; mouse, PO 3 mg/kg, at 0.5 h): 11 ng/mL; Max. Conc. Liver ([3]; mouse, PO 3 mg/kg, at 0.5 h): 920 ng/mL; Max. Conc. Plasma ([3]; mouse, PO 3 mg/kg, at 0.5 h): 160 ng/mL; Plasma Half-life (HL) ([3]; mouse, PO 3 mg/kg, 3 mg/kg): 7.3 h |
| CC(C)(NC(=O)c1nn(Cc2ccc(F)cc2)c2ccccc12)C(=O)N1CCC[C@H]1C(N)=O [Compound 14, N-{1-[(2S)-2-Carbamoylpyrrolidin-1-yl]-2-methyl-1-oxopropan-2-yl}-1-[(4-fluorophenyl)methyl]-1H-indazole-3-carboxamide] | 10.2 | 2 | ~20 nM and 20 nM | 16 ± 1 | Ki (hCB1 receptor [1]): 4 nM; Ki (hCB2 receptor [2]): 6 nM |
| CC(C)(NC(=O)c1nn(CC2CCC(F)(F)CC2)c2ccccc12)c1cccc(C(N)=O)c1 [Compound 50, N-[2-(3-Carbamoylphenyl)propan-2-yl]-1-[(4,4-difluorocyclohexyl)methyl]-1H-indazole-3-carboxamide] | > 3.33 | < 5 |  |  | Ki (hCB1 receptor [1]): 2.5 nM; Ki (hCB2 receptor [2]): 3 nM; plasma levels [3]: < 30 ng/mL; CYP induction profile (in words) [4]: profile similar to that of 45 |
| CC(C)(NC(=O)c1nn(Cc2ccc(C#N)cc2)c2ccccc12)c1cccc(C(N)=O)c1 [Compound 44, N-[2-(3-Carbamoylphenyl)propan-2-yl]-1-[(4-cyanophenyl)methyl]-1H-indazole-3-carboxamide] | > 3.33 | < 5 | 234 ± 154 nM | > 10000 |  |
| CC(C)(NC(=O)c1nn(Cc2ccc(F)cc2)c2ccccc12)C1CCCN(CC(N)=O)C1 (centres unmarked) [Compound 34, N-{2-[1-(Carbamoylmethyl)piperidin-3-yl]propan-2-yl}-1-[(4-fluorophenyl)methyl]-1H-indazole-3-carboxamide] | < 0.333 |  | 369 ± 57 nM | 28 ± 13 |  |
| CC(C)(NC(=O)c1nn(CC2CCCC2)c2ccccc12)c1cccc(C(N)=O)c1 [Compound 48, N-[2-(3-Carbamoylphenyl)propan-2-yl]-1-(cyclopentylmethyl)-1H-indazole-3-carboxamide] | 0.367 | 58 | 893 ± 192 nM | 613 ± 351 |  |
| CC(C)(NC(=O)c1nn(CCCCC(F)(F)F)c2ccccc12)c1cccc(C(N)=O)c1 [Compound 55, N-[2-(3-Carbamoylphenyl)propan-2-yl]-1-(5,5,5-trifluoropentyl)-1H-indazole-3-carboxamide] | 1.7 | 6 | 156 ± 35 nM | 341 ± 145 |  |
| CC(C)(NC(=O)c1nn(Cc2ccc(F)cc2)c2ccccc12)c1cccc(C(N)=O)c1 [Compound 24, N-[2-(3-Carbamoylphenyl)propan-2-yl]-1-[(4-fluorophenyl)methyl]-1H-indazole-3-carboxamide] | 2.05 | 5 | 25 ± 5 nM |  | CYP1A2 Induction (% of Omeprazole) (CYP1A2): <1%; CYP2B6 Induction (% of Phenobarbital) (CYP2B6): <1%; CYP3A4 Induction (% of Rifampicin) (CYP3A4): <1%; Max. Conc. Brain ([3]; mouse, IP 2.5 mg/kg, at 0.25 h): 1.4 ng/mL; Max. Conc. Liver ([3]; mouse, IP 2.5 mg/kg, at 0.25 h): 650 ng/mL; Max. Conc. Plasma ([3]; mouse, IP 2.5 mg/kg, at 0.25 h): 72 ng/mL |
| NC(=O)[C@H](Cc1ccccc1)NC(=O)c1nn(Cc2ccc(F)cc2)c2ccccc12 [Compound 8, (2S)-2-({1-[(4-Fluorophenyl)methyl]-1H-indazol-3-yl}formamido)-3-phenylpropanamide] |  |  | 337 ± 33 nM | 59 ± 7 |  |
| CC(C)(NC(=O)c1nn(CCCCCF)c2ccccc12)c1cccc(C(N)=O)c1 [Compound 54, N-[2-(3-Carbamoylphenyl)propan-2-yl]-1-(5-fluoropentyl)-1H-indazole-3-carboxamide] | 1.02 | 10 | 84 ± 6 nM |  | plasma levels [3]: < 30 ng/mL; CYP induction profile (in words) [4]: profile similar to that of 45 |
| CC(C)(NC(=O)c1nn(Cc2ccc(F)cc2)c2ccccc12)C(N)=O [Compound 10, 2-({1-[(4-Fluorophenyl)methyl]-1H-indazol-3-yl}formamido)-2-methylpropanamide] |  |  | > 10000 nM | 477 ± 142 |  |
| CC(F)(F)CCCn1nc(C(=O)NC(C)(C)c2cccc(C(N)=O)c2)c2ccccc21 [Compound 53, N-[2-(3-Carbamoylphenyl)propan-2-yl]-1-(4,4-difluoropentyl)-1H-indazole-3-carboxamide] | 2.67 | 7.9 | 463 ± 187 nM | 3420 ± 151 | Ki (hCB1 receptor [1]): 54 nM; Ki (hCB2 receptor [2]): 75 nM |
| CC(C)(NC(=O)c1nn(CCCCC#N)c2ccccc12)c1cccc(C(N)=O)c1 [Compound 56, N-[2-(3-Carbamoylphenyl)propan-2-yl]-1-(4-cyanobutyl)-1H-indazole-3-carboxamide] | 3 | 7 | 731 ± 161 nM | 760 ± 175 |  |
| CC(C)(NC(=O)c1nn(Cc2ccc(F)cc2)c2ccccc12)C1CCN(C(N)=O)CC1 [Compound 36, N-[2-(1-Carbamoylpiperidin-4-yl)propan-2-yl]-1-[(4-fluorophenyl)methyl]-1H-indazole-3-carboxamide] |  |  | 2370 ± 452 nM | 132 ± 49 |  |
| CC(C)[C@H](NC(=O)c1nn(Cc2ccc(F)cc2)c2ccccc12)C(=O)O [Compound 5, (2S)-2-({1-[(4-Fluorophenyl)methyl]-1H-indazol-3-yl}formamido)-3-methylbutanoic Acid] |  |  | 5550 ± 435 nM | 516 ± 19 |  |
| NC(=O)CN1CCC[C@H](NC(=O)c2nn(Cc3ccc(F)cc3)c3ccccc23)C1 [Compound 40, N-[(3S)-1-(Carbamoylmethyl)piperidin-3-yl]-1-[(4-fluorophenyl)methyl]-1H-indazole-3-carboxamide] |  |  | 36 ± 14 nM | 22 ± 1 |  |
